Test [1] concerns human muscle cells and motor neurons derived from hiPSC co-cultures. The test can be described thus: Contraction frequency in human muscle cell / hiPSC motor neuron co-cultures. Type of test: cell-based. The method, then:
The potential of said peptide Ac-SEQ ID NO: 8-NH2 to modulate the contraction frequency was evaluated in vitro using human muscle cells and motor neurons derived from hiPSC co-cultures, by means of live-imaging video of localized contractile muscle fibers recorded with an InCell 2200 automated microscope during 60 seconds, before and after treatment (after treatment, at each of the established timepoints).
Human muscle cells were cultivated at a density of 1×10^6 cells in T75 cm^2 flasks and then transferred to 96 well plates for differentiation. Motor neurons derived from hiPSC were transferred onto the 96 well plates containing the muscle cells in a differentiation medium. Co-cultures were maintained for 10 days in order to generate neurons junctions with muscle fibers. Spontaneous contractions were observed within 5 days.
Co-cultures were then treated with control medium (basal), 1 μM α-bungarotoxin, 0.5 mg/mL of acetyl hexapeptide-8 as a benchmark reference and 0.05 or 0.1 mg/mL of peptide Ac-SEQ ID NO: 8-NH2. Movies of co-cultures were recorded during 60 seconds before treatment and, after 30 minutes of incubation, movies were recorded again during 60 seconds. The culture plate was incubated again for 1 h 30 min with compounds (2 h of total incubation), and movies of co-cultures were recorded again during 60 seconds. The culture plate was incubated again for a total of 24 h with compounds and at the end of the incubation movies were recorded again during 60 seconds. Finally, compounds were washed out and a last recording after 24 h from said washed out of the compounds was done to assess an eventual recovery of muscle contractions (recovery).
Frequencies of contraction were calculated before and after each incubation. For each culture condition, 6 wells were analyzed.

The subject of test [2] is human skeletal muscle myocytes. The experiment in a line: Gene expression modulation in skeletal muscle human myocytes (RTqPCR contractility gene panel). It counts as cell-based. The settings on record: vs basal control. The method, then:
Said peptides were tested to evaluate their capacity to modulate the expression of several genes related with muscle contraction and relaxation in human skeletal muscle myocytes (Lodish H, Berk A, Zipursky S L, et al. (2000), Molecular Cell Biology, 4th edition; Section 18.3 Myosin: The Actin Motor Protein, Nueva York, W. H. Freeman; Kuo, I Y, & Ehrlich, B E (2015), Signaling in Muscle Contraction, Cold Spring Harbor Perspectives in Biology, 7(2); RAPSN receptor associated protein of the synapse [Homo sapiens (human)], Gene ID in NCBI 5913; Blake D J, Tinsley J M, Davies K E (1996), Utrophin: a structural and functional comparison to dystrophin, Brain Pathol., 6(1):37-47; Barik A, Lu Y, Sathyamurthy A, et.al. (2014), LRP4Is Critical for Neuromuscular Junction Maintenance, The Journal of Neuroscience, 34(42), 13892-13905; Kim N, Stiegler A L, Cameron T O, Hallock P T, et.al. (2008), Lrp4 is a Receptor for Agrin and Forms a Complex with MuSK, Cell, 135(2), 334-342; Mahavadi S, Nalli A, Kumar D, et.al. (2014), Increased expression of caveolin-1 is associated with upregulation of the RhoA/Rho kinase pathway and smooth muscle contraction in diabetes (1110.11), The FASEB Journal, 28:1_supplement)). To that end, a contractility smart data gene panel was designed. Said contractility smart data gene panel analyses the expression of the genes related with muscular contraction and relaxation included in table 5.
Briefly, human skeletal muscle myoblasts were seeded in duplicate in 12-well culture plates at a density of 1×10^5 cells/well and maintained at standard culture conditions (37° C., 95% humidity, 5% CO2) for 48-72h. Myoblast differentiation to myocyte was then induced with specific differentiation media (SKM-D medium+1% Antibiotic-Antimycotic) and monitored for 7 more days. Differentiated cells were treated with 0.05 mg/mL of peptide Ac-SEQ ID NO: 5-NH2; or with 0.1 mg/mL of peptide Ac-SEQ ID NO: 10-NH2 for 24 hours; or with 0.05 and 0.5 mg/mL of peptide Ac-SEQ ID NO: 8-NH2 for 6h; or with 0.5 mg/mL of peptide Ac-SEQ ID NO: 8-NH2 for 24 h. Untreated cells were used as basal control. Cells were then lysed for RNA extraction with a RNA purification commercial kit following manufacturer instructions (RNeasy mini kit, Qiagen, Netherlands). RNA was then quantified by nanodrop, adjusted in concentration and processed for retrotranscription to cDNA using a commercially available kit (High-Capacity cDNA Reverse Transcription kit, Thermofisher Scientific, USA). Resulting cDNA was used to perform a RTqPCR (Real Time Quantitative Polymerase Chain Reaction) using taqman technology and a panel of probes designed to target the specific genes related to muscle contractility mentioned in table 4.
A general note: Real-time PCR tracks product formation cycle by cycle.

As to “Ac-His-Ala-Leu-Arg-Phe-Trp-NH2 [Ac-SEQ ID NO: 8-NH2]”, the “muscle contraction frequency with regard to the basal non-treated cells” value in test [1] (0.05 mg/mL, 24 h incubation) came to 23%. For the same substance, the “muscle contraction frequency with regard to the basal non-treated cells” value in test [1] (0.05 mg/mL, after 30 min) was determined as 25%. Moreover, the “muscle contraction frequency with regard to the basal non-treated cells” value in test [1] (0.05 mg/mL, recovery 24 h after washout) came to 65%. Further, in test [1] (0.1 mg/mL, 24 h incubation), the “muscle contraction frequency with regard to the basal non-treated cells” value is given as 10%. Besides, the “muscle contraction frequency with regard to the basal non-treated cells” value in test [1] (0.1 mg/mL, after 30 min) is recorded as 18%. In addition, in test [1] (0.1 mg/mL, recovery 24 h after washout), the “muscle contraction frequency with regard to the basal non-treated cells” value amounted to 35%. In addition, in test [2] (0.05 mg/mL, 6 hours), the CACNB1 gene expression entry is “downregulation”, the LRP4 gene expression entry is on record as “downregulation”, the MYH1 gene expression result is on record as “downregulation” and the UTRN gene expression result is “downregulation”. In test [2] (0.5 mg/mL, 6 hours), the ACTA1 gene expression result was “downregulation”, the CALM3 gene expression entry was “downregulation”, the CAV1 gene expression result is recorded as “downregulation” and the SCN3A gene expression entry is recorded as “downregulation”. Further, the TNNC1 gene expression entry in test [2] (0.5 mg/mL, 6 hours) is “downregulation”. In test [2] (0.5 mg/mL, 24 hours), the ATP2A gene expression result was “upregulation” and the RAPSN gene expression entry was “downregulation”.

The values above are taken from patent US11634458B2, “Peptides and compositions for use in cosmetics and medicine” (LIPOTRUE, S.L., priority 2018, dated 2023).
